Measured values taken from ChEMBL document CHEMBL1955768, “Impact of stereochemistry on the biological activity of novel oleandomycin derivatives” (Bioorg Med Chem, 2012).
Converted amounts (≈) assume the structure as drawn. The source made the active and inactive calls. The rule behind the calls is not given here.

How the values were obtained:
Staphylococcus aureus = assay: Antibacterial activity against Staphylococcus aureus ATCC 13709 by broth microdilution method; assay type: functional
Streptococcus pneumoniae = assay: Antibacterial activity against Streptococcus pneumoniae ATCC 49619 by broth microdilution method; assay type: functional
Streptococcus pyogenes = assay: Antibacterial activity against Streptococcus pyogenes ATCC 700294 by broth microdilution method; assay type: functional; settings: M1 GAS
Moraxella catarrhalis = assay: Antibacterial activity against Moraxella catarrhalis ATCC 23246 by broth microdilution method; assay type: functional
Haemophilus influenzae = assay: Antibacterial activity against Haemophilus influenzae ATCC 49247 by broth microdilution method; assay type: functional
Splenocyte = assay: Inhibition of LPS-induced IL-6 production in mouse splenocytes at 50 uM after 2 hrs preincubation by ELISA; assay type: functional
THP-1 = assay: Cytotoxicity against human THP1 cells at 100 uM after 24 hrs by MTS assay; assay type: cell-based; settings: thp-1, 24 h
Mus musculus = assay: Antiinflammatory activity against LPS-induced lung neutrophilia in BALB/cJ mouse model assessed as reduction in neutrophil numbers in bronchoalveolar lavage fluid at 100 mg/kg, ip treated 2 hrs before LPS challenge measured after 24 hrs by hematological analyzer; assay type: functional, organism-based; design: dose 100 mg/kg

SMILES	MIC (Staphylococcus aureus)	MIC (Streptococcus pneumoniae)	MIC (Streptococcus pyogenes)	MIC (Moraxella catarrhalis)	MIC (Haemophilus influenzae)	inhibition at 50 µM (Splenocyte)	Activity (THP-1)	Activity (Mus musculus)
CO[C@H]1C[C@H](O[C@H]2[C@H](C)[C@@H](O[C@@H]3O[C@H](C)C[C@H](N(C)C)[C@H]3O)[C@@H](C)C[C@@H](C)[C@@H](O)[C@H](C)[C@@H](O)[C@@H](C)[C@@H](C)OC(=O)[C@@H]2C)O[C@@H](C)[C@@H]1O	> 64 µg/mL	> 64 µg/mL	> 64 µg/mL	> 64 µg/mL	> 64 µg/mL	2%	Non-toxic	
CO[C@H]1C[C@H](O[C@H]2[C@H](C)[C@@H](O[C@@H]3O[C@H](C)C[C@H](N(C)C)[C@H]3O)[C@@H](C)C[C@H](C)[C@H](O)[C@H](C)[C@@H](O)[C@@H](C)[C@@H](C)OC(=O)[C@@H]2C)O[C@@H](C)[C@@H]1O	> 64 µg/mL	> 64 µg/mL	> 64 µg/mL	> 64 µg/mL	> 64 µg/mL	12%	Non-toxic	
C=C1C[C@H](C)[C@H](O[C@@H]2O[C@H](C)C[C@H](N(C)C)[C@H]2O)[C@@H](C)[C@H](O[C@H]2C[C@H](OC)[C@@H](O)[C@H](C)O2)[C@@H](C)C(=O)O[C@H](C)[C@H](C)[C@H](O)[C@@H](C)[C@@H]1O	> 64 µg/mL	> 64 µg/mL	> 64 µg/mL	> 64 µg/mL	> 64 µg/mL	13%	Non-toxic	
C=C1C[C@H](C)[C@H](O[C@@H]2O[C@H](C)C[C@H](N(C)C)[C@H]2O)[C@@H](C)[C@H](O[C@H]2C[C@H](OC)[C@@H](O)[C@H](C)O2)[C@@H](C)C(=O)O[C@H](C)[C@H](C)[C@H](O)[C@@H](C)[C@H]1O	> 64 µg/mL	> 64 µg/mL	> 64 µg/mL	> 64 µg/mL	> 64 µg/mL	13%	Non-toxic	
CO[C@H]1C[C@H](O[C@H]2[C@H](C)[C@@H](O[C@@H]3O[C@H](C)C[C@H](N(C)C)[C@H]3O)[C@@H](C)C[C@H](C)[C@@H](O)[C@H](C)[C@@H](O)[C@@H](C)[C@@H](C)OC(=O)[C@@H]2C)O[C@@H](C)[C@@H]1O	> 64 µg/mL	> 64 µg/mL	> 64 µg/mL	> 64 µg/mL	> 64 µg/mL	2%	Non-toxic	Active

Now from value to compound, other results behind:

MIC (Staphylococcus aureus)	MIC (Streptococcus pneumoniae)	MIC (Streptococcus pyogenes)	MIC (Moraxella catarrhalis)	MIC (Haemophilus influenzae)	SMILES	inhibition at 50 µM (Splenocyte)	Activity (THP-1)	Activity (Mus musculus)
> 64 µg/mL	> 64 µg/mL	> 64 µg/mL	> 64 µg/mL	> 64 µg/mL	CO[C@H]1C[C@H](O[C@H]2[C@H](C)[C@@H](O[C@@H]3O[C@H](C)C[C@H](N(C)C)[C@H]3O)[C@@H](C)C[C@H](C)C(=O)[C@H](C)[C@@H](O)[C@@H](C)[C@@H](C)OC(=O)[C@@H]2C)O[C@@H](C)[C@@H]1O	42%	Non-toxic	
4 µg/mL (≈ 5.94 µM)	0.25 µg/mL (≈ 0.371 µM)	0.5 µg/mL (≈ 0.742 µM)	2 µg/mL (≈ 2.97 µM)	> 64 µg/mL	CO[C@H]1C[C@H](O[C@H]2[C@H](C)[C@@H](O[C@@H]3O[C@H](C)C[C@H](N(C)C)[C@H]3O)[C@@H](C)C[C@@H](C)C(=O)[C@H](C)[C@@H](O)[C@@H](C)[C@@H](C)OC(=O)[C@@H]2C)O[C@@H](C)[C@@H]1O	69%	Non-toxic	
> 64 µg/mL	4 µg/mL (≈ 5.92 µM)	> 64 µg/mL	> 64 µg/mL	> 64 µg/mL	CO[C@H]1C[C@H](O[C@H]2[C@H](C)[C@@H](O[C@@H]3O[C@H](C)C[C@H](N(C)C)[C@H]3O)[C@@H](C)C[C@@H](C)[C@H](O)[C@H](C)[C@@H](O)[C@@H](C)[C@@H](C)OC(=O)[C@@H]2C)O[C@@H](C)[C@@H]1O	61%	Non-toxic	Active
